# Experimental data reported in patent US8791102B2, “Acetanilide sphingosine-1-phosphate receptor antagonists” (Exelixis, Inc., priority 2008, dated 2014).
# pIC50: −log10 of the molar value.
# Molecular target: T1, human S1P1 receptors (Homo sapiens, UniProt P21453)
# T1 construct: host or cells: HEK293
# Assay: S1P1R antagonist assay (fluorescent membrane potential dye, cAMP readout)
# Assay type: cell-based
# Details: HEK293 cells expressing human S1P1 receptors and CNG channel; 500 nM NECA; S1P1R agonist 10 nM; 90 minutes; read-out: EC50 or IC50 value
# T1 sequence (P21453 whole entry): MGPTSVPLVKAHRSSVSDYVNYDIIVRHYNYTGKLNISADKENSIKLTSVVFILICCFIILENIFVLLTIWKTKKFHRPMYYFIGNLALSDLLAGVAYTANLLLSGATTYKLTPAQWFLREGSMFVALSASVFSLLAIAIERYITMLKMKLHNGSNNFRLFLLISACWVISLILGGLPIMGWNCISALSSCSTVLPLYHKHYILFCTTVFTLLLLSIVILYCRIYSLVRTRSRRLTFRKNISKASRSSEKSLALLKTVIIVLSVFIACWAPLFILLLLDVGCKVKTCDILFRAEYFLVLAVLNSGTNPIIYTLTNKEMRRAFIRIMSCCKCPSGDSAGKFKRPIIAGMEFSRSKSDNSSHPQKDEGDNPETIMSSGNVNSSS
row,pIC50,Compound
1,< 6.00,"O=C(NC(COCc1ccccc1)C(=O)Nc1ccc(Oc2ccccc2)cc1)c1cccc(Cl)c1 (centres unmarked) [Compound 275, 3-chloro-N-(2-oxo-1-{[(phenylmethyl)oxy]methyl}-2-{[4-(phenyloxy)phenyl]amino}ethyl)benzamide]"
2,< 6.00,"O=C(NC(COCc1ccccc1)C(=O)Nc1ccc(Oc2ccccc2)cc1)c1ccc2ccccc2c1 (centres unmarked) [Compound 288, N-(2-oxo-1-{[(phenylmethyl)oxy]methyl}-2-{[4-(phenyloxy)phenyl]amino}ethyl)naphthalene-2-carboxamide]"
3,< 6.00,"COCCC(=O)NC(COCc1ccccc1)C(=O)Nc1ccc(Oc2ccccc2)cc1 (centres unmarked) [Compound 337, N-(2-oxo-1-{[(phenylmethyl)oxy]methyl}-2-{[4-(phenyloxy)phenyl]amino}ethyl)-3-methoxypropanamide]"
4,< 6.00,"O=C(NC(COCc1ccccc1)C(=O)Nc1ccc(Oc2ccccc2)cc1)c1c[nH]c2ccccc12 (centres unmarked) [Compound 341, N-(2-oxo-1-{[(phenylmethyl)oxy]methyl}-2-{[4-(phenyloxy)phenyl]amino}ethyl)-1H-indole-3-carboxamide]"
5,< 6.00,"Cc1ccc(CC(=O)NC(COCc2ccccc2)C(=O)Nc2ccc(Oc3ccccc3)cc2)cc1 (centres unmarked) [Compound 372, N-(2-oxo-1-{[(phenylmethyl)oxy]methyl}-2-{[4-(phenyloxy)phenyl]amino}ethyl)-2-p-tolylacetamide]"
6,≥ 6.52,"O=C(CN1CCOCC1)N[C@@H](COCc1ccc(F)cc1)C(=O)Nc1ccc(Oc2ccc(F)cc2)cc1 [Compound 210, (S)-3-(4-fluorobenzyloxy)-N-(4-(4-fluorophenoxy)phenyl)-2-(2-morpholinoacetamido)propanamide]"
7,< 6.00,"COc1cc(C(=O)NC(COCc2ccccc2)C(=O)Nc2ccc(Oc3ccccc3)cc2)cc(OC)c1OC (centres unmarked) [Compound 291, 3,4,5-tris(methyloxy)-N-(2-oxo-1-{[(phenylmethyl)oxy]methyl}-2-{[4-(phenyloxy)phenyl]amino}ethyl)benzamide]"
8,6.00 to 6.52,"O=C(CN1CCc2ccccc2C1)N[C@@H](COCc1ccccc1)C(=O)Nc1ccc(Oc2ccc(F)cc2)cc1 [Compound 221, (S)-3-(benzyloxy)-2-(2-(3,4-dihydroisoquinolin-2(1H)-yl)acetamido)-N-(4-(4-fluorophenoxy)phenyl)propanamide]"
9,6.00 to 6.52,"O=C(CN1CCC2CCCCC2C1)N[C@@H](COCc1ccccc1)C(=O)Nc1ccc(Oc2ccc(F)cc2)cc1 (stereo partly drawn) [Compound 222, (2S)-3-(benzyloxy)-N-(4-(4-fluorophenoxy)phenyl)-2-(2-(octahydroisoquinolin-2(1H)-yl)acetamido)propanamide]"
10,6.00 to 6.52,"CCCCc1ccc(C(=O)NC(COCc2ccccc2)C(=O)Nc2ccc(Oc3ccccc3)cc2)nc1 (centres unmarked) [Compound 378, 5-butyl-N-(2-oxo-1-{[(phenylmethyl)oxy]methyl}-2-{[4-(phenyloxy)phenyl]amino}ethyl)pyridine-2-carboxamide]"
11,6.00 to 6.52,"CC(=O)NC(COCc1ccccc1)C(=O)Nc1ccc(Oc2ccccc2)cc1 (centres unmarked) [Compound 269, N-(2-oxo-1-{[(phenylmethyl)oxy]methyl}-2-{[4-(phenyloxy)phenyl]amino}ethyl)acetamide]"
12,6.00 to 6.52,"O=C(CN1CCCC1)N[C@@H](COCc1ccccc1)C(=O)Nc1ccc(Oc2ccc(F)cc2)cc1 [Compound 215, (S)-3-(benzyloxy)-N-(4-(4-fluorophenoxy)phenyl)-2-(2-(pyrrolidin-1-yl)acetamido)propanamide]"
13,6.00 to 6.52,"Cc1cccc(C(=O)NC(COCc2ccccc2)C(=O)Nc2ccc(Oc3ccccc3)cc2)c1[N+](=O)[O-] (centres unmarked) [Compound 189, N-(3-(benzyloxy)-1-oxo-1-(4-phenoxyphenylamino)propan-2-yl)-3-methyl-2-nitrobenzamide]"
14,6.00 to 6.52,"O=C(Cc1cc(Cl)ccc1Cl)NC(COCc1ccccc1)C(=O)Nc1ccc(Oc2ccccc2)cc1 (centres unmarked) [Compound 190, 3-(benzyloxy)-2-(2-(2,5-dichlorophenyl)acetamido)-N-(4-phenoxyphenyl)propanamide]"
15,< 6.00,"COCC(=O)NC(COCc1ccccc1)C(=O)Nc1ccc(Oc2ccccc2)cc1 (centres unmarked) [Compound 284, N-(2-oxo-1-{[(phenylmethyl)oxy]methyl}-2-{[4-(phenyloxy)phenyl]amino}ethyl)-2-methoxyacetamide]"
16,< 6.00,"COC(C(=O)NC(COCc1ccccc1)C(=O)Nc1ccc(Oc2ccccc2)cc1)c1ccccc1 (centres unmarked) [Compound 353, N-(2-oxo-1-{[(phenylmethyl)oxy]methyl}-2-{[4-(phenyloxy)phenyl]amino}ethyl)-2-methoxy-2-phenylacetamide]"
17,< 6.00,"O=C(NC(COCc1ccccc1)C(=O)Nc1ccc(Oc2ccccc2)cc1)c1ccc(F)cc1C(F)(F)F (centres unmarked) [Compound 330, 4-fluoro-N-(2-oxo-1-{[(phenylmethyl)oxy]methyl}-2-{[4-(phenyloxy)phenyl]amino}ethyl)-2-(trifluoromethyl)benzamide]"
18,6.00 to 6.52,"COC(=O)c1ccc(C(=O)NC(COCc2ccccc2)C(=O)Nc2ccc(Oc3ccccc3)cc2)cc1 (centres unmarked) [Compound 397, methyl 4-{[(2-oxo-1-{[(phenylmethyl)oxy]methyl}-2-{[4-(phenyloxy)phenyl]amino}ethyl)amino]carbonyl}benzoate]"
19,6.00 to 6.52,"O=C(Cc1c[nH]cn1)N[C@@H](COCc1ccccc1)C(=O)Nc1ccc(Oc2nccs2)cc1 [Compound 206, (S)-2-(2-(1H-imidazol-4-yl)acetamido)-3-(benzyloxy)-N-(4-(thiazol-2-yloxy)phenyl)propanamide]"
20,< 6.00,"O=C(NC(COCc1ccccc1)C(=O)Nc1ccc(Oc2ccccc2)cc1)C1CCN(c2nccc(C(F)(F)F)n2)CC1 (centres unmarked) [Compound 302, N-(2-oxo-1-{[(phenylmethyl)oxy]methyl}-2-{[4-(phenyloxy)phenyl]amino}ethyl)-1-[4-(trifluoromethyl)pyrimidin-2-yl]piperidine-4-carboxamide]"
21,6.00 to 6.52,"O=C(CN1CCSCC1)N[C@@H](COCc1ccccc1)C(=O)Nc1ccc(Oc2ccc(F)cc2)cc1 [Compound 266, (S)-3-(benzyloxy)-N-(4-(4-fluorophenoxy)phenyl)-2-(2-thiomorpholinoacetamido)propanamide]"

# Second part, the molecule before the results:
row,Compound,pIC50
1,"O=C(Nc1ccc(Oc2ccc(F)cc2)cc1)[C@@H]1C[C@@H](Cc2ccccc2)CN1C(=O)CN1CCOCC1 [Compound 116, (2S,4R)-4-benzyl-N-(4-(4-fluorophenoxy)phenyl)-1-(2-morpholinoacetyl)pyrrolidine-2-carboxamide]",≥ 6.52
2,"O=C(Cn1cncn1)N1C[C@H](Cc2ccccc2)C[C@H]1c1nc2cc(Oc3ccc(F)cc3)ccc2[nH]1 [Compound 12, 1-((2S,4R)-4-benzyl-2-(5-(4-fluorophenoxy)-1H-benzo[d]imidazol-2-yl)pyrrolidin-1-yl)-2-(1H-1,2,4-triazol-1-yl)ethanone]",6.00 to 6.52
3,"O=C(Cn1ccnn1)N[C@@H](COCc1ccccc1)C(=O)Nc1ccc(Oc2ccc(F)cc2)cc1 [Compound 174, (S)-2-(2-(1H-1,2,3-triazol-1-yl)acetamido)-3-(benzyloxy)-N-(4-(4-fluorophenoxy)phenyl)propanamide]",≥ 6.52
4,"CS(=O)(=O)CC(=O)NC(COCc1ccccc1)C(=O)Nc1ccc(Oc2ccccc2)cc1 (centres unmarked) [Compound 19, 3-(benzyloxy)-2-(2-(methylsulfonyl)acetamido)-N-(4-phenoxyphenyl)propanamide]",< 6.00
5,"O=C(CN1CCC(N2CCCC2)CC1)N[C@@H](COCc1ccccc1)C(=O)Nc1ccc(Oc2ccc(F)cc2)cc1 [Compound 43, (S)-3-(benzyloxy)-N-(4-(4-fluorophenoxy)phenyl)-2-(2-(4-(pyrrolidin-1-yl)piperidin-1-yl)acetamido)propanamide]",< 6.00
6,"O=C(NC(COCc1ccccc1)C(=O)Nc1ccc(Oc2ccccc2)cc1)c1ccc2cc[nH]c2c1 (centres unmarked) [Compound 187, N-(3-(benzyloxy)-1-oxo-1-(4-phenoxyphenylamino)propan-2-yl)-1H-indole-6-carboxamide]",6.00 to 6.52
7,"O=C(Cc1cnc[nH]1)NC(COCc1ccccc1)C(=O)Nc1ccc(Oc2ccccc2)cc1 (centres unmarked) [Compound 142, 2-(2-(1H-imidazol-5-yl)acetamido)-3-benzyloxy-N-(4-phenoxyphenyl)propanamide]",≥ 6.52
8,"O=C(CCCCc1ccccc1)N[C@@H](COCc1ccccc1)C(=O)Nc1ccc(Oc2ccc(F)cc2)cc1 [Compound 104, (S)—N-(3-(benzyloxy)-1-(4-(4-fluorophenoxy)phenylamino)-1-oxopropan-2-yl)-5-phenylpentanamide]",< 6.00
9,"O=C(Cn1ccnc1)N[C@@H](COCc1ccccc1)C(=O)Nc1ccc(Oc2ccc(F)cc2)cc1 [Compound 134, (S)-2-(2-(1H-imidazol-1-yl)acetamido)-3-benzyloxy-N-(4-(4-fluorophenoxy)phenyl)propanamide]",≥ 6.52
10,"O=C(Cc1ccccc1F)NC(COCc1ccccc1)C(=O)Nc1ccc(Oc2ccccc2)cc1 (centres unmarked) [Compound 183, 3-(benzyloxy)-2-(2-(2-fluorophenyl)acetamido)-N-(4-phenoxyphenyl)propanamide]",6.00 to 6.52
11,"O=C(Nc1ccc(Oc2ccc(F)cc2)cc1)[C@@H]1C[C@@H](NCc2ccsc2)CN1C(=O)Cn1cncn1 [Compound 182, (2S,4R)-1-(2-(1H-1,2,4-triazol-1-yl)acetyl)-N-(4-(4-fluorophenoxy)phenyl)-4-(thien-3-ylmethylamino)pyrrolidine-2-carboxamide]",≥ 6.52
12,"O=C(Nc1ccc(Oc2ccc(F)cc2)cc1)[C@@H]1C[C@@H](c2ccccc2)CN1C(=O)Cn1cncn1 [Compound 78, (2S,4S)-1-(2-(1H-1,2,4-triazol-1-yl)acetyl)-N-(4-(4-fluorophenoxy)phenyl)-4-phenylpyrrolidine-2-carboxamide]",6.00 to 6.52
13,"O=C(Cc1coc(-c2ccccc2)n1)N[C@@H](COCc1ccc(F)cc1)C(=O)Nc1ccc(Oc2ccc(F)cc2)cc1 [Compound 44, (S)-3-(4-fluorobenzyloxy)-N-(4-(4-fluorophenoxy)phenyl)-2-(2-(2-phenyloxazol-4-yl)acetamido)propanamide]",< 6.00
14,"O=C(Nc1ccc(Oc2ccc(F)cc2)cc1)[C@@H]1C[C@@H](Cc2ccccc2)CN1C(=O)Cc1cccs1 [Compound 117, (2S,4R)-4-benzyl-N-(4-(4-fluorophenoxy)phenyl)-1-(2-(thien-2-yl)acetyl)pyrrolidine-2-carboxamide]",≥ 6.52
